Our source for the pest or weed control and inhibition of growth values is patent US8507509B2, “Saturated and insaturated bi- or tricyclic aryloxyacetamine derivatives and their use as fungicides” (Syngenta Crop Protection LLC, priority 2007, dated 2013).

Molecules are shown by their SMILES.

One experiment concerns Plasmopara viticola. Briefly: Plasmopara viticola (downy mildew of grapevine), grapevine leaf disk assay, preventive. It is filed as in vivo. Particulars: foliar, 168 h, 200 ppm, grapevine leaf disks, assessed seven days after inoculation, read-out: control of fungal infection, Plasmopara viticola.
In another experiment the test system is Phytophthora infestans. As to the kind of experiment: whole plant or invertebrate. In kind it is in vivo. Particulars: in Solanum lycopersicum, foliar, 96 h, read-out: control of fungal infection, Phytophthora infestans.
Experiment [1] relates to Erysiphe graminis f.sp. tritici. As to the kind of experiment: Erysiphe graminis f.sp. tritici (wheat powdery mildew), wheat leaf segment assay, preventive. The note with it: Blumeria graminis, foliar, 96 h; 200 ppm; wheat leaf segments; assessed four days after inoculation; read-out: control of fungal infection, Etysiphe graminis f.sp. tritici. It is filed as in vivo.
For a further experiment, the system named is Septoria tritici. Briefly: Septoria tritici (leaf blotch), liquid culture growth inhibition in nutrient broth. In kind it is cell-based. The note with it: Zymoseptoria tritici; 200 ppm; PDB broth, 24 C; inhibition of growth determined photometrically after 72 hrs; read-out: control of fungal infection, Septoria tritici.
For another experiment, the system named is Pythium ultimum. As to the kind of experiment: Pythium ultimum (Damping off), liquid culture growth inhibition in potato dextrose broth. It is filed as cell-based. Particulars: Globisporangium ultimum; 20 ppm; potato dextrose broth, 24° C.; inhibition of growth determined photometrically after 48 hours; read-out: control of fungal infection, Pythium ultimum.

`CCON=CC(C)(C)NC(=O)C(CC)Oc1ccc2ncc(I)cc2c1` (stereo not drawn) [Compound No. 3, N-(2-Ethoxyimino-1,1-dimethyl-ethyl)-2-(3-iodo-quinolin-6-yloxy)-butyramide]: the pest or weed control at 200 ppm (with Plasmopara viticola; in the experiment with Phytophthora infestans; in experiment [1]) was no less than 60% in each case. In the experiment on Septoria tritici, the inhibition of growth at 200 ppm is no less than 60%. As for `C=CCON=CC(C)(C)NC(=O)C(CC)Oc1cc(C)c2ncc(I)cc2c1` (stereo not drawn) [Compound No. 7, N-(2-allyloxyimino-1,1-dimethyl-ethyl)-2-(3-iodo-8-methyl-quinolin-6-yloxy)-butyramide], the pest or weed control at 200 ppm in experiment [1] is no less than 60%. In the experiment on Septoria tritici, the inhibition of growth at 200 ppm is no less than 60%. Consider `CSC(Oc1ccc2ncc(Br)cc2c1)C(=O)NC(C)(C)C=NOCc1ccc(Cl)cc1` (stereo not drawn) [Compound No. 9, 2-(3-Bromo-quinolin-6-yloxy)-N-[2-(4-chloro-benzyloxyimino)-1,1-dimethyl-ethyl]-2-methylsulfanyl-acetamide], for which the inhibition of growth at 200 ppm in the experiment with Septoria tritici was no less than 60%. For the molecule `CSC(Oc1ccc2ncc(Br)cc2c1)C(=O)NC(C)(C)C=NOC(C)(C)C` (stereo not drawn) [Compound No. 12, 2-(3-Bromo-quinolin-6-yloxy)-N-(2-tert-butoxyimino-1,1-dimethyl-ethyl)-2-methylsulfanyl-acetamide], the inhibition of growth at 200 ppm in the experiment with Septoria tritici was no less than 60%. For the same molecule, the inhibition of growth at 20 ppm in the experiment with Pythium ultimum was no less than 60%. `CSC(Oc1ccc2ncc(Br)cc2c1)C(=O)NC(C)(C)C=NOCC(C)C` (stereo not drawn) [Compound No. 18, 2-(3-Bromo-quinolin-6-yloxy)-N-(2-iso-butoxyimino-1,1-dimethyl-ethyl)-2-methylsulfanyl-acetamide]: the pest or weed control at 200 ppm with Plasmopara viticola is no less than 60%. In addition, the inhibition of growth at 200 ppm in the experiment on Septoria tritici is no less than 60%.

Consider `CSC(Oc1cc(C)c2ncc(Br)cc2c1)C(=O)NC(C)(C)C=NOC(C)(C)C` (stereo not drawn) [Compound No. 22, 2-(3-Bromo-8-methyl-quinolin-6-yloxy)-N-(2-tert-butoxyimino-1,1-dimethyl-ethyl)-2-methylsulfanyl-acetamide], for which the inhibition of growth at 200 ppm with Septoria tritici was no less than 60%. On the same count and under the same terms, for `CCOC(=O)C(C)(C)O/N=C/C(C)(C)NC(=O)C(Oc1cc(C)c2ncc(Br)cc2c1)SC` (stereo not drawn) [Compound No. 24, 2-[2-[2-(3-Bromo-8-methyl-quinolin-6-yloxy)-2-methylsulfanyl-acetylamino]-2-methyl-prop-(E)-ylideneaminooxy]-2-methyl-propionic acid ethyl ester] the value was no less than 60%; for `CSC(Oc1cc(C)c2ncc(Br)cc2c1)C(=O)NC(C)(C)C=NOCC(C)C` (stereo not drawn) [Compound No. 25, 2-(3-Bromo-8-methyl-quinolin-6-yloxy)-N-(2-isobutoxyimino-1,1-dimethyl-ethyl)-2-methylsulfanyl-acetamide], no less than 60%.

Regarding `C=CCON=CC(C)(C)NC(=O)C(Oc1cc(C)c2ncc(Br)cc2c1)SC` (stereo not drawn) [Compound No. 28, N-(2-Allyloxyimino-1,1-dimethyl-ethyl)-2-(3-bromo-8-methyl-quinolin-6-yloxy)-2-methylsulfanyl-acetamide], the pest or weed control at 200 ppm in the experiment with Plasmopara viticola was no less than 60%. Moreover, the inhibition of growth at 200 ppm with Septoria tritici is no less than 60%.

Regarding `CCCCON=CC(C)(C)NC(=O)C(Oc1cc(C)c2ncc(Br)cc2c1)SC` (stereo not drawn) [Compound No. 30, 2-(3-Bromo-8-methyl-quinolin-6-yloxy)-N-(2-butoxyimino-1,1-dimethyl-ethyl)-2-methylsulfanyl-acetamide], the inhibition of growth at 200 ppm in the experiment with Septoria tritici was no less than 60%. On to `CON=CC(C)(C)NC(=O)C(Oc1cc(Cl)c2ncc(Br)cc2c1)SC` (stereo not drawn) [Compound No. 35, 2-(3-Bromo-8-chloro-quinolin-6-yloxy)-N-(2-methoxyimino-1,1-dimethyl-ethyl)-2-methylsulfanyl-acetamide], for which the inhibition of growth at 200 ppm with Septoria tritici was no less than 60%. Further, in the experiment on Pythium ultimum, the inhibition of growth at 20 ppm is no less than 60%. Turning to `CCON=CC(C)(C)NC(=O)C(Oc1cc(Cl)c2ncc(Br)cc2c1)SC` (stereo not drawn) [Compound No. 36, 2-(3-Bromo-8-chloro-quinolin-6-yloxy)-N-(2-ethoxyimino-1,1-dimethyl-ethyl)-2-methylsulfanyl-acetamide], the pest or weed control at 200 ppm (in the experiment on Plasmopara viticola; in experiment [1]) was no less than 60% throughout. Also, the inhibition of growth at 200 ppm in the experiment on Septoria tritici was no less than 60%. Take `CON=CC(C)(C)NC(=O)C(Oc1ccc2ncc(C#C[Si](C)(C)C)cc2c1)SC` (stereo not drawn) [Compound No. 37, N-(2-methoxyimino-1,1-dimethyl-ethyl)-2-methylsulfanyl-2-(3-trimethylsilanylethynyl-quinolin-6-yloxy)-acetamide]: the pest or weed control at 200 ppm (in the experiment with Plasmopara viticola; in the experiment on Phytophthora infestans; in experiment [1]) was no less than 60% in each case. Further, in the experiment on Septoria tritici, the inhibition of growth at 200 ppm is no less than 60%. Take `CSC(Oc1cc(C)c2ncc(I)cc2c1)C(=O)NC(C)(C)CC=NOC(C)(C)C` (stereo not drawn) [Compound No. 43, N-(3-tert-Butoxyimino-1,1-dimethyl-propyl)-2-(3-iodo-8-methyl-quinolin-6-yloxy)-2-methylsulfanyl-acetamide]: in the experiment on Septoria tritici, the inhibition of growth at 200 ppm was no less than 60%.

Consider `CSC(Oc1cc(C)c2ncc(I)cc2c1)C(=O)NC(C)(C)CC=NOCc1ccccc1` (stereo not drawn) [Compound No. 47, N-(3-Benzyloxyimino-1,1-dimethyl-propyl)-2-(3-iodo-8-methyl-quinolin-6-yloxy)-2-methylsulfanyl-acetamide], for which, in the experiment with Plasmopara viticola, the pest or weed control at 200 ppm is no less than 60%. Further, in the experiment on Septoria tritici, the inhibition of growth at 200 ppm is no less than 60%. In the case of `CON=CC(C)(C)NC(=O)C(Cc1cc(C)c2ccsc2c1)SC` (stereo not drawn) [Compound No. 82, N-(2-Methoxyimino-1,1-dimethyl-ethyl)-3-(4-methyl-benzo[b]thiophen-6-yl)-2-methylsulfanyl-propionamide], the pest or weed control at 200 ppm in the experiment with Plasmopara viticola was no less than 60%. Moreover, the inhibition of growth at 200 ppm in the experiment with Septoria tritici was no less than 60%. Moreover, in the experiment with Pythium ultimum, the inhibition of growth at 20 ppm was no less than 60%. On to `CON=CCC(C)(C)NC(=O)C(Oc1ccc2ncc(I)cc2c1)SC` (stereo not drawn) [Compound No. 92, 2-(3-iodo-quinolin-6-yloxy)-N-(3-methoxyimino-1,1-dimethyl-propyl)-2-methylsulfanyl-acetamide], for which the inhibition of growth at 20 ppm with Pythium ultimum was no less than 60%. For the molecule `CON=C(C)CC(C)(C)NC(=O)C(Oc1ccc2ncc(Br)cc2c1)SC` (stereo not drawn) [Compound No. 104, 2-(3-Bromo-quinolin-6-yloxy)-N-(3-methoxyimino-1,1-dimethyl-butyl)-2-methylsulfanyl-acetamide], the pest or weed control at 200 ppm (in the experiment on Plasmopara viticola; with Phytophthora infestans; in experiment [1]) was no less than 60% in each case.

For `CSC(Oc1ccc2ncc(Br)cc2c1)C(=O)NC(C)(C)C=NOCc1ccccc1` (stereo not drawn) [Compound No. 109, N-(2-Benzyloxyimino-1,1-dimethyl-ethyl)-2-(3-bromo-quinolin-6-yloxy)-2-methylsulfanyl-acetamide], the pest or weed control at 200 ppm in the experiment with Plasmopara viticola and in the experiment with Phytophthora infestans was no less than 60% each time. Also, the inhibition of growth at 200 ppm in the experiment on Septoria tritici was no less than 60%.

Turning to `CSC(Oc1cc(C)c2ncc(Br)cc2c1)C(=O)NC(C)(C)C=NOCc1ccccc1` (stereo not drawn) [Compound No. 110, N-(2-Benzyloxyimino-1,1-dimethyl-ethyl)-2-(3-bromo-8-methyl-quinolin-6-yloxy)-2-methylsulfanyl-acetamide], the inhibition of growth at 200 ppm with Septoria tritici is no less than 60%. Regarding `CCON=C(Cc1ccsc1)C(C)(C)NC(=O)C(Oc1ccc2ncc(Br)cc2c1)SC` (stereo not drawn) [Compound No. 125, 2-(3-Bromo-quinolin-6-yloxy)-N-{2-[(E or Z)-ethoxyimino]-1,1-dimethyl-3-thiophen-3-yl-propyl}-2-methylsulfanyl-acetamide], the pest or weed control at 200 ppm with Plasmopara viticola was no less than 60%. Further, in the experiment on Septoria tritici, the inhibition of growth at 200 ppm was no less than 60%.

Consider `C=CCON=C(Cc1ccsc1)C(C)(C)NC(=O)C(Oc1ccc2ncc(Br)cc2c1)SC` (stereo not drawn) [Compound No. 126, N-{2-[(E or Z)-Allyloxyimino]-1,1-dimethyl-3-thiophen-3-yl-propyl}-2-(3-bromo-quinolin-6-yloxy)-2-methylsulfanyl-acetamide], for which, in the experiment on Plasmopara viticola, the pest or weed control at 200 ppm is no less than 60%. Further, in the experiment on Septoria tritici, the inhibition of growth at 200 ppm was no less than 60%. As for `CCON=C(Cc1ccccn1)C(C)(C)NC(=O)C(Oc1ccc2ncc(Br)cc2c1)SC` (stereo not drawn) [Compound No. 128, 2-(3-Bromo-quinolin-6-yloxy)-N-{2-[(E or Z)-ethoxyimino]-1,1-dimethyl-3-pyridin-2-yl-propyl}-2-methylsulfanyl-acetamide], the inhibition of growth at 200 ppm with Septoria tritici is no less than 60%. Besides, the inhibition of growth at 20 ppm in the experiment with Pythium ultimum was no less than 60%. On to `CCc1cc(OC(SC)C(=O)NC(C)(C)C=NOC)cc2cc(Br)cnc12` (stereo not drawn) [Compound No. 133, 2-(3-Bromo-8-ethyl-quinolin-6-yloxy)-N-(2-methoxyimino-1,1-dimethyl-ethyl)-2-methylsulfanyl-acetamide], for which the pest or weed control at 200 ppm with Plasmopara viticola was no less than 60%. In the experiment on Septoria tritici, the inhibition of growth at 200 ppm is no less than 60%. As for `C#Cc1cnc2c(C)cc(OC(CC)C(=O)NC(C)(C)C=NOCC(C)C)cc2c1` (stereo not drawn) [Compound No. 136, 2-(3-Ethynyl-8-methyl-quinolin-6-yloxy)-N-(2-isobutoxyimino-1,1-dimethyl-ethyl)-butyramide], the inhibition of growth at 200 ppm in the experiment with Septoria tritici is no less than 60%.

`C#Cc1cnc2c(C)cc(OC(CC)C(=O)NC(C)(C)C=NOC(C)(C)C)cc2c1` (stereo not drawn) [Compound No. 137, N-(2-tert-Butoxyimino-1,1-dimethyl-ethyl)-2-(3-ethynyl-8-methyl-quinolin-6-yloxy)-butyramide]: the pest or weed control at 200 ppm in experiment [1] was no less than 60%. Further, in the experiment on Septoria tritici, the inhibition of growth at 200 ppm was no less than 60%.
